In patent US6518012B1, “Method for regulating the expression of MHC antigens and CD40 by inhibitors of histone deacetylation” (Health Research, Inc., priority 1999, dated 2003):

Experiments:
MHC class I [1] = assay: Cell surface MHC class I by flow cytometry on Colon 26 and J558; format: cell-based, mouse
Description: To determine the effect of TSA on cell surface protein expression, the J558 cell line was subjected to flow cytometric analyses as follows. Flow cytometric analyses were conducted by standard methods using cells fixed with 1.0% paraformaldehyde and analyzed on the FACScan (Becton Dickinson). Cell cycle analyses were carried out by flow cytometry with PI staining of genomic DNA. Cells were fixed and permeablized in methanol, treated with RNaseA and analyzed for DNA content by determination of FL3-area on the FACScan. The FL3-area data were analyzed with the ModFit software for determination of the percent cells in each phase of the cell cycle. In some cases, fluorescein isothiocyanate (FITC)-conjugated antibody staining was conducted prior to PI treatment and surface staining was analyzed as a function of cell cycle phase. Apoptosis was analyzed by staining with annexin-V directly conjugated with either FITC or RPE and by sub-G0 analysis of DNA staining. Expression levels without treatment are shown as shaded peaks, IFNγ treated cell expression is plotted by a thin line while the level of expression on TSA treated cells is represented by a heavy line. Isotype controls were analyzed and, in each case, fell on or below the levels shown for control cells. […] Since all cells were positive for MHC class I expression, the number under the histogram represents -fold change of expression calculated from the mean channel-shift after treatment relative to untreated cells. […] Of the 13 markers analyzed on J558 cells, only class I, II and CD40 were enhanced, while levels of several non-expressed antigens were not elicited (including CD25, B7 integrin, CD40L, H2K^k and IA^k) while other markers, which were expressed, were not altered (including CD44, CD54, CD80, CD86 and CD119) by TSA treatment. […] The separation of control and IFNγ curves in the CD40, J558 experiment depicted in FIG. 8 represents a mean channel fluorescence difference of only 1.3 and was not seen on independent replicates of the experiment. […]

[2] = test system: MC, Colon 26 and J558 cells; assay: Cell cycle analysis by DNA staining and flow cytometry; format: cell-based; details: TSA concentrations used in FIG. 8 (50 nM 48 hours MC and Colon 26; 25 nM 24 hours J558); data not shown
Description: (§1) To determine the effect of TSA on cell surface protein expression, the J558 cell line was subjected to flow cytometric analyses as follows. Flow cytometric analyses were conducted by standard methods using cells fixed with 1.0% paraformaldehyde and analyzed on the FACScan (Becton Dickinson). Cell cycle analyses were carried out by flow cytometry with PI staining of genomic DNA. Cells were fixed and permeablized in methanol, treated with RNaseA and analyzed for DNA content by determination of FL3-area on the FACScan. The FL3-area data were analyzed with the ModFit software for determination of the percent cells in each phase of the cell cycle. In some cases, fluorescein isothiocyanate (FITC)-conjugated antibody staining was conducted prior to PI treatment and surface staining was analyzed as a function of cell cycle phase. Apoptosis was analyzed by staining with annexin-V directly conjugated with either FITC or RPE and by sub-G0 analysis of DNA staining. […] Isotype controls were analyzed and, in each case, fell on or below the levels shown for control cells. […] Since all cells were positive for MHC class I expression, the number under the histogram represents -fold change of expression calculated from the mean channel-shift after treatment relative to untreated cells. […]

MHC class I [3] = assay: Cell surface MHC class I by flow cytometry on SK-N-MC; format: cell-based, human; details: 50 nM TSA 48 hours
[4] = test system: DP and DQ isotypes of MHC class II mRNA; assay: mRNA for DP and DQ isotypes of MHC class II in SK-N-MC; format: cell-based, human; details: data not shown
CD40 = assay: Cell surface CD40 by flow cytometry on SK-N-MC; format: cell-based, human; details: 50 nM TSA 48 hours
J558 cells = assay: Other cell surface markers by flow cytometry on J558 cells; format: cell-based, mouse; details: TSA treatment
Description: as §1

[5] = test system: MC, Colon 26 and J558 cells; assay: Apoptosis by flow cytometry (sub-G0 PI staining, annexin-V); format: cell-based; details: low concentrations of TSA employed in FIG. 8
Description: as §1

cell lines employed = assay: Toxicity of deacetylase inhibitors (lift-off, trypan-blue dye exclusion, laddering, PI/annexin-V flow cytometry); format: cell-based; details: TSA from 5 nM to 250 nM for 6 to 72 hr
Description: Two representative DAIs, TSA and NaBu were used for this illustration. […] In some experiments, 100 U/ml γ-IFN was added with and without the deacetylase inhibitor.

[6] = test system: IRF-1, GBP and MHC class I mRNA; assay: mRNA of IRF-1, GBP and MHC class I in J558; format: cell-based, mouse; details: IFNγ, data not shown
Description: To determine if the effect of DAIs on MHC class II was manifested in other tumors and in different species, the effect of TSA was tested on four commonly used mouse tumor models: the SaI fibrosarcoma, the Colon 26 adenocarcinoma, the J558 plasmacytoma and the P815 mastocytoma. TSA induced class II in all four mouse tumors examined, while the effects of IFNγ were variable (FIG. 4). Data presented for each cell line represents optimal incubation time and concentration of TSA and is compared with 100 U/ml of IFNγ at the same time point. Numbers over bars represents fold changes. […] Colon 26 and J558 that differed strikingly in their reactivity to IFNγ were selected for further evaluation. RT-PCR and real time PCR was used to examine induction of CIITA and IAα by TSA and IFNγ. A20, a constitutively positive B cell line was used as a positive control. The results are shown in FIGS. 5A-D. The numbers over bars represent fold changes. […] Since the classical IFNγ inducible genes IRF-1 and GBP as well as MHC class I mRNA were not induced by IFNγ in J558 (data not shown), this cell line may have a signaling defect in the IFNγ pathway. Unexpectedly however, and unlike either the MC or Colon 26 cells, TSA induced both CIITA (102-fold) and Iα (537-fold) in J558 as shown in FIGS. 5B and 5D.

[7] = test system: interferon regulatory factor (IRF-1) and guanylate binding protein (GBP) mRNA; assay: mRNA of IFNγ inducible genes IRF-1 and GBP in SK-N-MC; format: cell-based, human; details: IFNγ treatment, data not shown

| Compound | MHC class I expression on cell surface (MHC class I [1]; Colon 26 and J558, flow cytometry) | class I expression as a function of cell cycle phase (MHC class I [1]; J558, double staining with PI and antibody to class I) | effect on the cell cycle [2] | MHC class I expression on cell surface (MHC class I [3]) | mRNA for the DP and DQ isotypes of MHC class II [4] | expression of CD40 on cell surface (CD40) | expressed markers (CD44, CD54, CD80, CD86, CD119) (J558 cells) | levels of non-expressed antigens (CD25, B7 integrin, CD40L, H2K^k, IA^k) (J558 cells) | apoptosis [5] | toxicity (cell lines employed) | MHC class I expression, response to IFNγ (MHC class I [1]; J558, IFNγ 100 U/ml) | IRF-1, GBP and MHC class I mRNA induction [6] | mRNA for IRF-1 and GBP [7] |
| --- | --- | --- | --- | --- | --- | --- | --- | --- | --- | --- | --- | --- | --- |
| CC(/C=C/C(=O)NO)=C\[C@@H](C)C(=O)c1ccc(N(C)C)cc1 [TSA, Trichostatin A] | enhanced | induced expression throughout the cell cycle | did not significantly alter | enhanced | induced | induced expression | not altered | not elicited | could not be detected | non toxic | – | – | – |
| IFNγ: gamma-interferon, cytokine used as comparator at 100 U/ml | – | – | – | – | – | – | – | – | – | – | unresponsive | not induced | enhanced |
